The source of these data is US12403326B2, “System for corneal cross-linking and correcting vision by using LED contact lens and eye dye” (PHI BIOMED INC., priority 2019, dated 2025).

Structures are written as SMILES.

Series [1] deals with bovine cornea. Nature of the series: Corneal permeability by two-photon image analysis. Type of series: in vitro ADME. Particulars: dropped on bovine cornea at 5-minute intervals for 30 minutes; two-photon imaging. Here is the method:
The hyaluronic acid-Rose Bengal conjugate synthesized in Example 1 was dropped on the bovine cornea at 5-minute intervals for 30 minutes. As a comparative group, a pure Rose Bengal solution was dropped in the same manner as described above.
Afterward, two-photon image analysis was performed by extracting the cornea from the bovine cornea.

Series [2] has as its system bovine cornea. The series is described as follows: Corneal bonding of wounded cornea, intraocular pressure by tonometer after 532-nm laser. Particulars: wounded bovine eye; dropped at 5-minute intervals for 30 minutes, 532-nm laser for 30 minutes. How it is done: After approximately […] wound was made in the bovine cornea, the pressure in the bovine eye was measured using a tonometer. Afterward, each of a hyaluronic acid-Rose Bengal conjugate solution and a Rose Bengal solution was dropped on the wound-induced region at 5-minute intervals for 30 minutes, and a 532-nm laser was irradiated for 30 minutes to induce crosslinking between corneal collagen to bond. Likewise, an intraocular pressure was measured after bonding by a laser using a tonometer.
By comparing the intraocular pressure before and after bonding, it was confirmed whether bonding was formed.

Series [3] relates to bovine cornea. Nature of the series: Corneal thickness from H&E stained corneal tissue after collagen crosslinking. The following applies: decreased from 1000 μm; dropped for 30 minutes, 532-nm laser for 30 minutes; H&E images. How it is done:
(§1) Hyaluronic acid or a hyaluronic acid-Rose Bengal conjugate were dropped on the bovine cornea at 5-minute intervals for 30 minutes, and a 532-nm laser was irradiated for 30 minutes to induce crosslinking between corneal collagen. Afterward, corneal tissue was fixed with formalin, and stained with H&E, followed by observation under a microscope.

Series [4] deals with bovine cornea. The series is described as follows: Corneal strength, Young's modulus using Instron equipment. The following applies: bovine cornea after collagen crosslinking; untreated Control 1.76. How it is done:
as §1
In addition, the bovine cornea in which collagen crosslinking was induced was extracted, and then the Young's modulus of the cornea was measured using Instron equipment to analyze the strength of the cornea.

As for `O=C([O-])c1c(Cl)c(Cl)c(Cl)c(Cl)c1-c1c2cc(I)c(=O)c(I)c-2oc2c(I)c([O-])c(I)cc12.[Na+].[Na+]` [Rose Bengal], the “depth up to which fluorescence was shown in the cornea (corneal permeability)” value in series [1] was 400 μm. Moreover, the “increase in maximum intraocular pressure compared to not treated” value in series [2] was “approximately two”. In addition, the “corneal thickness after treatment” value in series [3] worked out at 750 μm. In series [4], the “Young's modulus of the cornea” value was determined as 2.75.
